Source: patent US20120121720A1, “Modulation of Beta 2 Adrenergic Receptors by Inhibitors of EGLN3 or pVHL” (priority 2009, published 2012)

Legend:
[1] = system: asthma; test: Patient case examples: asthma; format: in vivo, human
Description: A person with asthma, wherein symptoms are not improving despite receiving treatment with 250 ug beclomethasone taken in combination with an inhaler containing albuterol (when needed) is begun on DMOG at a dose of 20 mg/kg three times per day. Patient's asthma improves.
A person with asthma exacerbated by treatment with budesonide and formoterol at a dose per actuation of 160 and 4.5 mcg, respectively. Patient is begun on DMOG at a dose of 100 mg/kg once per day. Patient's asthma improves. EXAMPLE HI
A person with asthma exacerbated by treatment with fluticasone and salmeterol. Patient is begun on DMOG at a dose of 30 mg/kg twice per day. Patient's asthma improves.
A person with asthma exacerbated wherein symptoms are not improving despite receiving treatment with albuterol. Patient is begun on DMOG at a dose of 25 mg/kg three times per day. Patient's asthma improves.
A person with asthma exacerbated by treatment with budesonide and formoterol at a dose per actuation of 150.0 and 5.0 mcg, respectively. Patient is begun on malonic acid compound at a dose of 120 mg/kg once per day. Patient's asthma improves.

[2] = system: impaired sense of smell; test: Patient case example: impaired sense of smell; format: in vivo, human; conditions: Example XXIII; after steroidal nasal spray; DMOG nasal spray 1 mg/ml
Description: DMOG is administered via nasal spray in amount 1 mg/ml. Patient sense of smell improves.

[3] = system: hypertension; test: Patient case examples: hypertension; format: in vivo, human; conditions: for Blood pressure: baseline 180/95 on hydralazine hydrochloride
Description: A person with hypertension and not responding to hydralazine hydrochloride (i.e., blood pressure 180/95). […] Patient is begun on DMOG at a dose of 30 mg/kg twice per day. Patient improves (i.e., blood pressure 160/90).
They are started on DMOG at a dose of 30 mg/kg twice per day. Patient improves. No limiting hypertension is noted.
A person with hypertension is not responding to hydralazine hydrochloride (i.e., blood pressure 180/95). […] Patient is begun on DMOG at a dose of 30 mg/kg twice per day. Patient improves (i.e., blood pressure 160/90).

[4] = system: unstable angina; test: Patient case examples: unstable angina with nitroglycerin tolerance; format: in vivo, human; conditions: IV nitroglycerin tolerance over 48 hours
Description: A person with unstable angina on IV nitroglycerin develops tolerance over 48 hours as evidenced by recurrent chest pains despite increasing doses of drug.
A person with unstable angina on IV nitroglycerin develops tolerance over 48 hours as evidenced by recurrent chest pains despite increasing doses of drug. […] The patient improves.

[5] = system: cystic fibrosis; test: Patient case examples: cystic fibrosis; format: in vivo, human
Description: A person with cystic fibrosis presents with hypoxemia and pulmonary hemorrhage. They are begun on ethyl nitrite 20 parts per million in nitrogen, N-acetylcysteine 50 mg/kg Q 6 hours and ascorbate IV 1 gram Q 6 hours, along with DMOG at a dose of 40 mg/kg three times per day. […] They are discharged on day 7. A person with cystic fibrosis presents with labored breathing and increased sputum production.

[6] = system: heart failure; test: Patient case examples: heart failure (ejection fraction, dyspnea); format: in vivo, human; conditions: for Ejection fraction / Ejection fraction response: baseline 25%; for Ejection fraction: within one month
Description: The patient is started on nitroglycerin patch (Nitro-bid), 2 inches, twice a day and DMOG at a dose of 100 mg/kg once per day. Ejection fraction improves to 40% within one month.
The patient is started on nitroglycerin patch (Nitro-bid), 2 inches, twice a day and DMOG at a dose of 25 mg/kg three times per day. Ejection fraction improves to 42% within one month.
The patient is started on intravenous nitroglycerin at 20 μg per minute and DMOG at a dose of 50 mg/kg three times per day. Ejection fraction improves to 42% within one month.
A person with heart failure remains short of breath despite increasing doses of nitroglycerin.

[7] = system: pulmonary edema; test: Patient case examples: pulmonary edema; format: in vivo, human; conditions: over the day
Description: A person presents complaining of shortness of breath. […] An intravenous line is inserted and the patient is started on IV infusion of […] per kilogram per minute nitroglycerin. They are also given an intravenous formulation of DMOG at a concentration of 10.0 mg/ml. Their symptoms improve over the day, during which time their arteriolar PO2 increases from 70 to 85 mm Hg.
A person presents complaining of shortness of breath. […] The patient is started on intravenous nitroglycerin at 25 μg per minute and DMOG at a dose of 25 mg/kg three times per day. Their symptoms improve over the day, during which time their arteriolar PO2 increases from 60 to 85 mm Hg.

[8] = system: Chronic Obstructive Pulmonary Disease; test: Patient case examples: Chronic Obstructive Pulmonary Disease; format: in vivo, human
Description: Patient started on DMOG at a dose of 50 mg/kg three times per day. Patient improves as evidenced by improved spirometry. A patient having Chronic Obstructive Pulmonary Disease, receiving supplemental oxygen and treated with salbutamol and prednisone is started on DMOG at a dose of 20 mg/kg three times per day.

[9] = system: sickle cell disease; test: Patient case example: sickle cell disease crisis; format: in vivo, human; conditions: Example XX; two units of blood, 80 ppm inhaled ethyl nitrite and 100 mg/kg DMOG
Description: A person with homozygous sickle cell disease presents in crisis. The patient complains of severe abdominal and chest pain and is somewhat disoriented. They receive two units of blood while being administered 80 ppm inhaled ethyl nitrite and 100 mg/kg of DMOG.

[10] = system: muscle wasting; test: Patient case examples: lymphoma and muscle wasting, six minute walk test; format: in vivo, human
Description: A person with lymphoma and muscle wasting. Patient is started on carvedilol at 12.5 BID and isosorbide dinitrate at 10 mg POTID. Patient is started on an intravenous formulation of DMOG at a concentration of […]. Patient's strength improves as evidenced by a six minute walk test.
A person with lymphoma and muscle wasting. Patient is started on alprenolol and isosorbide dinitrate. Patient is started on an intravenous formulation of DMOG at a concentration of 20.0 mg/mL. Patient's strength improves as evidenced by a six minute walk test.

[11] = target: EGLN3 binding to the β2AR (Homo sapiens, UniProt P07550)
[12] = system: β2AR
[13] = system: disorders of EXAMPLES I-XXIV; conditions: Examples I-XXIV repeated; peptide 10-100 mg orally once-, twice- or three times-daily

Compound: COC(=O)CNC(=O)C(=O)OC [DMOG, dimethyloxalylglycine]
- Patient's asthma ([1]; Example I, person not improving on 250 ug beclomethasone + albuterol inhaler, DMOG 20 mg/kg three times per day): improves
- Patient's asthma ([1]; Example II, person on budesonide/formoterol 160/4.5 mcg, DMOG 100 mg/kg once per day): improves
- Patient's asthma ([1]; Example III, person on fluticasone and salmeterol, DMOG 30 mg/kg twice per day): improves
- Patient's asthma ([1]; Example IV, person not improving on albuterol, DMOG 25 mg/kg three times per day): improves
- Sense of smell [2]: improves
- Blood pressure ([3]; Example X, propranolol, DMOG 30 mg/kg twice per day): 160/90
- Hypertension response ([3]; Example XI, person after nitropaste, DMOG 30 mg/kg twice per day): improves
- Blood pressure ([3]; Example XIII, metoprolol, DMOG 30 mg/kg twice per day): 160/90
- Response to nitroglycerin after tolerance ([4]; Example XII, intravenous DMOG formulation 15.0 mg/mL): responds to nitroglycerin
- Patient outcome, unstable angina ([4]; Example XIV, intravenous DMOG formulation 10.0 mg/ml): improves
- Sputum production ([5]; Example XIX, after HNO 10 ppm, DMOG 20 mg/kg three times per day, over two days): decreases in sputum production
- Pulmonary hemorrhage and state of health ([5]; Example XVIII, ethyl nitrite 20 ppm, N-acetylcysteine 50 mg/kg Q 6 hours, ascorbate IV 1 gram Q 6 hours + DMOG 40 mg/kg three times per day, over three days): the hemorrhage stops and the patient reverts to normal state of health
- Ejection fraction ([6]; Example V, on carvedilol, nitroglycerin patch 2 inches twice a day + DMOG 100 mg/kg once per day): 40%
- Ejection fraction ([6]; Example VI, on carvedilol 50 mg BID, nitroglycerin patch 2 inches twice a day + DMOG 25 mg/kg three times per day): 42%
- Ejection fraction ([6]; Example VII, on carvedilol 25 mg divided BID, intravenous nitroglycerin 20 μg per minute + DMOG 50 mg/kg three times per day): 42%
- Symptoms of pulmonary edema ([7]; Example XXI, IV nitroglycerin 0.1 mg per kilogram per minute + intravenous DMOG formulation 10.0 mg/ml): improve
- Arteriolar PO2 ([7]; Example XXI, from 70, IV nitroglycerin 0.1 mg per kilogram per minute + intravenous DMOG formulation 10.0 mg/ml): 85 mm Hg
- Arteriolar PO2 ([7]; Example XXII, from 60, intravenous nitroglycerin 25 μg per minute + DMOG 25 mg/kg three times per day): 85 mm Hg
- Symptoms of pulmonary edema ([7]; Example XXII, intravenous nitroglycerin 25 μg per minute + DMOG 25 mg/kg three times per day): improve
- Patient outcome, spirometry ([8]; Example XV, after albuterol, DMOG 50 mg/kg three times per day): improves
- Need for supplemental oxygen ([8]; Example XVI, on supplemental oxygen, salbutamol and prednisone, DMOG 20 mg/kg three times per day): no longer requires supplemental oxygen
- Symptoms of sickle cell crisis [9]: All symptoms resolve
- Patient's strength, six minute walk test ([10]; Example IX, on alprenolol and isosorbide dinitrate, intravenous DMOG formulation 20.0 mg/mL): improves
- Patient's strength, six minute walk test ([10]; Example VIII, on carvedilol 12.5 BID and isosorbide dinitrate 10 mg, intravenous DMOG formulation 25.0 mg/m): improves

Compound: N=O [HNO]
- Symptomatic status ([5]; Example XIX, HNO 10 ppm in nitrogen): improvements in their symptomatic status

Compound: N[C@@H](CCC(=O)N[C@@H](CSN=O)C(=O)NCC(=O)O)C(=O)O [S-nitrosoglutathione]
- Dyspnea and angina ([6]; Example XVII, short of breath despite nitroglycerin, S-nitrosoglutathione 0.1 μg/kg/min): improvement of dyspnea and relief of angina

Compound: CC(C)(C)NCC(O)c1ccc(O)c(CO)c1 (stereo not drawn) [albuterol]
- Patient outcome, COPD ([8]; Example XV, albuterol before DMOG): no improvement

Compound: COc1ccccc1OCCNCC(O)COc1cccc2[nH]c3ccccc3c12 (stereo not drawn) [carvedilol]
- Ejection fraction response ([6]; Example V, carvedilol before DMOG): without ejection fraction improving
- Ejection fraction response ([6]; Example VI, carvedilol 50 mg BID before DMOG): without ejection fraction improving
- Ejection fraction response ([6]; Example VII, carvedilol 25 mg divided BID before DMOG): without ejection fraction improving

Compound: O=C(O)CC(=O)O [malonic acid compound, malonic acid]
- Patient's asthma ([1]; Example XXIV, on budesonide/formoterol 150.0/5.0 mcg, malonic acid compound 120 mg/kg once per day): improves

Compound: COCCc1ccc(OCC(O)CNC(C)C)cc1 (stereo not drawn) [metoprolol]
- Hypertension response ([3]; Example XIII, metoprolol before DMOG, blood pressure 180/95): without improvement

Compound: CC(C)NCC(O)COc1cccc2ccccc12 (stereo not drawn) [propranolol]
- Hypertension response ([3]; Example X, propranolol before DMOG, blood pressure 180/95): without improvement

Compound: EAISFLLSLIDRLVLY
- Binding of EGLN3 to the β2AR [11]: inhibits binding
- Receptor expression in cells [12]: increases receptor expression
- Patient outcome in each EXAMPLE [13]: exhibits improvement
